Molecules are shown by their SMILES. Calls of active or inactive are those of the source.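 How the source made its calls: active means inhibitors whose fitted AC50 is no more than ten times their highest valid tested dose; inconclusive means flat fit with 30 to 70% inhibition, or poor fit; inactive means the rest.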

One experiment addresses Dual specificity tyrosine-phosphorylation-regulated kinase 1A (Rattus norvegicus) (UniProt Q63470). The experiment is described as follows: inhibition of rat Dyrk1A phosphotransfer – biochemical, cherry-pick, plate reader, 2124-03, dose response (AID 588449). The settings on record: recombinant Dyrk1A, ADP-Glo luminescence, NFATc1 peptide. For orientation: ADP-Glo first removes unused ATP, then detects ADP through luciferase.
The term AC50 denotes the concentration giving half of the maximal activity seen. On to `Clc1ccc(CNc2nccc(-c3ccc4cn[nH]c4c3)n2)cc1Cl`, for which the AC50 was 21.6 nM.
Take `Clc1cc(Cl)cc(CNc2ncncc2-c2ccc3c(c2)OCO3)c1`: the AC50 is 1060 nM.
For `c1cncc(CNc2cc(-c3ccc4c(c3)OCO4)ncn2)c1`, the AC50 was 1970 nM.
The same measure, in the same setting: with `Brc1ccc(CNc2nccc(-c3ccc4c(c3)OCO4)n2)cc1Br` the figure was 209 nM; with `c1cc(-c2ccc3c(c2)OCO3)nc(Nc2ccc3c(c2)OCO3)n1`, less than 5.6 nM.
Consider `Clc1ccc(CNc2nccc(-c3ccc4[nH]ncc4c3)n2)cc1Cl`, for which the AC50 is 114 nM.
Still for that read-out and setting: the figure for `c1nc(NCC2CCCOC2)c2cc(-c3ccc4c(c3)OCO4)ccc2n1` (stereo not given) is 6.72 nM.
On to `Cc1ccc(CNc2ncnc3ccc(-c4ccc5c(c4)OCO5)cc23)o1`, for which the AC50 was 62.5 nM.
Same read-out and setting: the figure for `Cc1ccsc1CN(C)c1ncnc2ccc(-c3ccc(CO)o3)cc12` is 905 nM.
Turning to `c1csc(CNc2ncnc3ccc(-c4ccoc4)cc23)c1`, the AC50 is 326 nM.
For the molecule `c1cncc(CNc2nccc(-c3ccc4c(c3)OCO4)n2)c1`, the concentration at half-maximal activity (AC50) was 48 nM.
Same read-out and setting: the figure for `CS(=O)(=O)CCNCc1ccc(-c2ccc3ncnc(Nc4ccc(OCc5cccc(F)c5)c(Cl)c4)c3c2)o1` is > 12000 nM (inactive).
Same read-out and setting: with `Fc1c(-c2ccc3ncnc(NCc4cccs4)c3c2)ccc2c1OCO2` the figure was 83.2 nM; with `FC(F)(F)c1cccc(Nc2nccc(-c3ccc4c(c3)OCO4)n2)c1`, less than 5.6 nM; with `Cc1occc1CNc1ncnc2ccc(-c3ccc4c(c3)OCO4)cc12`, 121 nM.
On to `CCN(Cc1cccs1)c1ncnc2ccc(-c3ccc4c(c3)OCO4)cc12`, for which the AC50 is 18 nM.
Same read-out and setting: with `c1nc(NCC2CCCC2)c2cc(-c3ccc4c(c3)OCO4)ccc2n1` the figure was 14.6 nM; with `Clc1ccc(CNc2ncncc2-c2ccc3c(c2)OCO3)cc1`, 9670 nM; with `Clc1ccc(Nc2nccc(-c3ccc4c(c3)OCO4)n2)cc1`, 228 nM.
`Cc1nc(CNc2ncnc3ccc(-c4ccoc4)cc23)cs1`: the AC50 is 907 nM.
On the same count and under the same terms, with `c1cncc(CNc2ccnc(-c3ccc4[nH]ncc4c3)n2)c1` the figure was 711 nM; with `Clc1ccc(CNc2nccc(-c3ccc4c(c3)OCCO4)n2)cc1Cl`, 19.8 nM; with `c1csc(CCNc2ncnc3ccc(-c4ccc5c(c4)OCO5)cc23)c1`, less than 5.6 nM.
The same measure, in the same setting: with `Clc1ccccc1-c1ccc2ncnc(NCc3ccc4c(c3)OCO4)c2c1` the figure was 3160 nM; with `O=[N+]([O-])c1cc(Nc2nccc(-c3ccc4c(c3)OCO4)n2)cc(C(F)(F)F)c1`, 2850 nM; with `CN(C)c1ccc(-c2nccc(NCc3cccs3)n2)cc1`, 5460 nM.
Take `CN(Cc1cccs1)c1ncnc2ccc(-c3ccc4c(c3)OCO4)cc12`: the AC50 was 49.2 nM.
The same measure, in the same setting: with `c1nc(NCC2CCCO2)c2cc(-c3ccc4c(c3)OCO4)ccc2n1` (stereo not given) the figure was less than 5.6 nM.
On to `Cc1ccc(CNc2ncnc3ccc(-c4ccoc4C)cc23)o1`, for which the AC50 was 2560 nM.
In the case of `c1cncc(CNc2nccc(-c3ccc4cn[nH]c4c3)n2)c1`, the AC50 was 217 nM.
The same measure, in the same setting: with `c1coc(CCNc2ncnc3ccc(-c4ccc5c(c4)OCO5)cc23)c1` the figure was 74.8 nM; with `CCCNc1ncnc2ccc(-c3ccc4c(c3)OCO4)cc12`, 36.5 nM.
Still for that read-out and setting: the figure for `c1cncc(CNc2ccnc(-c3ccc4cn[nH]c4c3)n2)c1` is 3540 nM; for `COc1ccc(-c2nccc(NCc3ccc(C)cc3)n2)cc1` it is less than 5.6 nM.
On the same count and under the same terms, the figure for `CCOC(=O)c1ccc(-c2ccc3ncnc(N(C)Cc4sccc4C)c3c2)o1` is 486 nM.
Regarding `Cc1nc(CNc2ncnc3ccc(-c4ccc5c(c4)OCO5)cc23)cs1`, the AC50 is 168 nM.
Same read-out and setting: with `Cc1c(-c2ccnc(NCc3cccnc3)n2)sc(=O)n1C` the figure was 410 nM; with `Clc1ccc(CNc2nccc(-c3ccc4c(c3)OCO4)n2)cc1Cl`, 84.3 nM; with `Cc1csc(CN(C)c2ncnc3ccc(-c4ccc5c(c4)OCO5)cc23)n1`, 1970 nM.
Turning to `Cc1c(-c2ccnc(NCc3ccc(Cl)cc3)n2)sc(=O)n1C`, the AC50 is 109 nM.
Consider `Clc1ccc(CNc2ccnc(-c3ccc4[nH]ncc4c3)n2)cc1Cl`, for which the AC50 is 19.1 nM.
On the same count and under the same terms, with `Cc1ccsc1CNc1ncnc2ccc(-c3ccc4c(c3)OCO4)cc12` the figure was 7.9 nM; with `Clc1ccc(CNc2cc(-c3ccc4c(c3)OCO4)ncn2)cc1`, 11300 nM; with `Cc1ccsc1CN(C)c1ncnc2ccc(-c3ccoc3)cc12`, 60.9 nM.
Same read-out and setting: with `Cc1nc(CN(C)c2ncnc3ccc(-c4ccc5c(c4)OCO5)cc23)cs1` the figure was 20.8 nM; with `Clc1cc(Cl)cc(CNc2cc(-c3ccc4c(c3)OCO4)ncn2)c1`, 340 nM; with `c1cncc(CNc2nccc(-c3ccc4[nH]ncc4c3)n2)c1`, 123 nM.
Consider `CN(Cc1nccs1)c1ncnc2ccc(-c3ccc4c(c3)OCO4)cc12`, for which the AC50 was less than 5.6 nM.
Same read-out and setting: with `Cc1noc(CN(C)c2ncnc3ccc(-c4ccc5c(c4)OCO5)cc23)n1` the figure was 21.1 nM; with `Cc1ccc(CN(C)c2ncnc3ccc(-c4ccc5c(c4)OCO5)cc23)o1`, 10.4 nM; with `Brc1cc(Br)cc(CNc2nccc(-c3ccc4c(c3)OCO4)n2)c1`, 8.38 nM.

The same experiment, now with this note: recombinant Dyrk1A, ADP-Glo luminescence, NFATc1 peptide; at 12 µM (top of the series).
For the molecule `Cn1ccc2cc(-c3ccc4ncnc(NCc5ccc6c(c5)OCO6)c4c3)ccc21`, the “activity change, negative = inhibition” value was “inactive”.
The same measure, in the same setting: the entry for `Cc1cccc(CNc2ncnc3ccc(-c4cccc(Cl)c4)cc23)c1` is “inactive”; for `c1csc(CNc2ncnc3ccc(-c4ccc5c(c4)OCO5)cc23)n1` it is “inactive”.
Still for that read-out and setting: with `Cn1ccc2cc(-c3ccc4ncnc(NCc5cccc(F)c5)c4c3)ccc21` the entry was “inactive”.

The values above are taken from PubChem BioAssay AID588449 (Broad Institute, 2011).
